Test system: T1, IaIAMT
T1 construct: full-length cDNA from leaf RNA, N-terminal MBP fusion (pCold-MBP), E. coli BL21(DE3), purified on gelatinized corn starch; MBP cleavage not mentioned
Test: radiochemical methyltransferase assay, […]-SAM, ethyl acetate extraction, scintillation counting
Type: biochemical, Illicium anisatum
Conditions: co-substrate [Me-14C]-SAM; sodium phosphate pH 7.0; 25°C; 10 min; IAA 0–400 µM; MBP fusion; read-out: apparent Km

## O=C(O)Cc1c[nH]c2ccccc12 [IAA, indole-3-acetic acid]
  Km: 122 ± 32.9 µM
